Source: patent publication US7803792B2, “Quaternary ammonium compounds” (Asahi Kasei Pharma Corporation, priority 2002, dated 2010)

Tests used:
[1] = system: Caco 2 cells; assay: Toxicity with respect to alimentary canal: cytotoxicity to Caco 2, LDH activity (Test Example 12); assay type: cell-based, human; conditions: LDH activity after 2 hours, relative to cytolytic agent = 100%
Description: Toxicity With Respect to Alimentary Canal
To evaluate the toxicity of the compounds of the present invention to the alimentary canal, the cytotoxicity to Caco 2, which is a human originated small intestine epithelial cell line, was tested by referring to the method of Bestwick C S et al. [Biochimica et Biophysica Acta 1474: 47-55, 1999].
That is, Caco 2 cells (purchased from ATCC) were inoculated on a 96-well plate such that there were 10,000 cells/well [MEM-E medium, 10% FBS (Fetal Bovine Serum), 1% NEAA (Non Essential Amino Acid) solution, (both manufactured by GIBCO PHARMACEUTICAL COMPANY)]. After culturing for 48 hours, the test compounds were diluted with the culture medium and added to the respective wells. After 2 hours, 50 μl of the culture broth was collected and the LDH activity in the collected culture broth was measured by using an LDH activity measuring kit (CytoTox 96 Non-Radioactive Cytotoxicity Assay, manufactured by PROMEGA CORPORATION). Relative activities were calculated assuming the LDH activity as 100% when the Caco 2 cells were treated with the cytolytic agent and the obtained relative activities were taken as cytotoxicities to Caco 2 cell.

[2] = system: Cholic acid-loaded rat model; assay: Bile acid-decreasing effect in portal vein of rats loaded with cholic acid (Test Example 2); assay type: in vivo; conditions: portal vein blood after 2 hours
Description: Bile Acid-Decreasing Effect in Portal Vein of Rats Loaded With Cholic Acid
In this test example, the test for confirming the bile acid-decreasing effect in portal vein of cholic acid-loaded rats was carried out according to the method described in Pharmacology and Therapeutics [Jpn Pharmacol. Ther., Vol. 24 Supplement, 1996, 103 (S-577)-110 (S-584)].
That is, 7 to 9 weeks old SD (IGS) rats were starved on the day before the test and thereafter. […] After 2 hours from the administration, a sample of blood was taken from a portal vein and total serum bile acid level was measured to study the effect of the test compound (n=6). Further, as a control group, a group (n=6) loaded with cholic acid (200 mg/kg) only was prepared and the same test procedure was followed. A commercially available kit (trade name: SOTANJUSAN-TEST WAKO-(SOTANJUSAN=total bile acid), manufactured by WAKO PURE CHEMICAL […], LTD.) was used for the measurement of bile acid. Assuming the value of the control group, which is a group in which no test compound was used, as 100%, the rate of decrease (percentage (%) of decrease) of the bile acid level when a fixed amount of the test compound was used was determined.

[3] = molecular target: T1, human IBAT (Homo sapiens, UniProt Q12908); assay: In vitro assay of temporarily expressed human IBAT transporter using Cos 7 cells (Test Example 8); assay type: cell-based; conditions: Cos 7 cells temporarily expressing human IBAT; [3H] taurocholate 8 μM, 37° C., 60 minutes
T1 construct: expressed in transfected cells; host or cells: Cos 7
T1 sequence (Q12908 1-348): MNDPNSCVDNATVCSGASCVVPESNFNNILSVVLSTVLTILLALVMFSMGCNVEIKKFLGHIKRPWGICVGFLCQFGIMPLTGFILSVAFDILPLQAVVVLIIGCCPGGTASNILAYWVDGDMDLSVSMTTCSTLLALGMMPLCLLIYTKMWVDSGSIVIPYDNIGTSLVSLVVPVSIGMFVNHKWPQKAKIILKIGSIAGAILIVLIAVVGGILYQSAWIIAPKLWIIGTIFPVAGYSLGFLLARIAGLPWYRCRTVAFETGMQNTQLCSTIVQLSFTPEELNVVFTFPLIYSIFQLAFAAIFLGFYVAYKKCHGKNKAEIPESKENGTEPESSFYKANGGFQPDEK
Description: In Vitro Assay of Compounds Which Inhibit Temporarily Expressed Human IBAT Transporter or Rat IBAT Transporter Using Cos 7 Cells
In this test example, the in vitro assay of the compounds which inhibit temporarily expressed human IBAT transporter or rat IBAT transporter using Cos cells was carried out according to the method described in Am. J. Physiol., 274, G157-169.
That is, […] Cos 7 were inoculated on a 24-well cell plate. One day later, 0.3 μg per well of cDNA of a human IBAT or a rat IBAT was transfected by using FuGENE6 (manufactured by ROCHE PHARMACEUTICAL CO., LTD.). For the assay, the cells cultured for one day after the transfection were used and the following procedure was followed. The cells were washed once with an assay buffer, Hank's buffer solution containing 25 mM glucose and with 10 mM HEPES (pH 7.4), and then the assay buffer was replaced by an assay buffer to which the test compound was added. After adding [^3H] taurocholate to a final concentration of 8 μM, the cells were incubated at 37° C. for 60 minutes. [^3H] taurocholate was allowed to be incorporated in Cos 7 cells through human IBAT or rat IBAT. The reaction was stopped by washing twice with a buffer prepared by adding 1 mM taurocholate to the assay buffer and lyzing the cells with 0.2M NaOH. Measurement of radioactivity was carried out by introducing the cell lyzate in 4 ml of liquid scintillation cocktail, stirring the mixture well, and then measuring the radioactivity by a scintillation counter.

[4] = 0.3 mg/kg oral with cholic acid 200 mg/kg, HCO-60 0.1%
[5] = 0.1 mg/kg oral with cholic acid 200 mg/kg, HCO-60 0.1%
[6] = 0.1 mg/kg oral with cholic acid 200 mg/kg, Tween 20 0.05%

SMILES	IC50 [3] [nM]	Rate of decrease (%) of bile acid [2, 5] [%]	other results
CCCCC1(CCCC)CS(=O)(=O)c2ccc(N(C)C)cc2C(c2cccc(NC(=S)Nc3ccc(CC[N+](C)(C)Cc4ccccc4)cc3)c2)N1 (stereo not shown) [Example 5043]	62	–	Toxicity (%) to Caco 2 ([1]; 3 μM): <1%; Toxicity (%) to Caco 2 ([1]; 10 μM): <1%; Toxicity (%) to Caco 2 ([1]; 30 μM): <1%; Rate of decrease (%) of bile acid [2, 4]: 39%
CCCCC1(CCCC)CS(=O)(=O)c2ccc(N(C)C)cc2C(c2cccc(NC(=S)Nc3ccc(C[N+]4(Cc5ccccc5)CCC(CO)CC4)cc3)c2)N1.[Br-] (stereo not shown) [Example 3607]	41	36	Toxicity (%) to Caco 2 ([1]; 3 μM): <1%; Toxicity (%) to Caco 2 ([1]; 10 μM): <1%; Toxicity (%) to Caco 2 ([1]; 30 μM): <1%
CCCCC1(CCCC)CS(=O)(=O)c2ccc(N(C)C)cc2C(c2cccc(NC(=S)Nc3cccc(C[N+]4(Cc5ccccc5)CCC(CCO)CC4)c3)c2)N1 (stereo not shown) [Example 4425]	89	22	–
CCCCC1(CCCC)CS(=O)(=O)c2ccc(N(C)C)cc2C(c2cccc(NC(=S)Nc3cccc(C[N+]45CCC(CC4)CC5)c3)c2)N1 (stereo not shown) [Example 4512]	63	37	–
CCCCc1ccc[n+](Cc2ccc(NC(=S)Nc3cccc(C4NC(CCCC)(CCCC)CS(=O)(=O)c5ccc(N(C)C)cc54)c3)cc2)c1.[Br-] (stereo not shown) [Example 3723]	25	–	Toxicity (%) to Caco 2 ([1]; 3 μM): <1%; Toxicity (%) to Caco 2 ([1]; 10 μM): <1%; Toxicity (%) to Caco 2 ([1]; 30 μM): <1%
CCCCC1(CCCC)CS(=O)(=O)c2ccc(N(C)C)cc2C(c2cccc(NC(=S)NCCC[N+](C)(C)Cc3ccccc3)c2)N1.[Br-] (stereo not shown) [Example 425]	170	–	Rate of decrease (%) of bile acid [2, 6]: 21%
CCCCC1(CCCC)CS(=O)(=O)c2ccc(N(C)C)cc2C(c2cccc(NC(=S)CCCCC[N+](C)(C)Cc3ccccc3)c2)N1 (stereo not shown) [Example 3835]	43	–	Toxicity (%) to Caco 2 ([1]; 3 μM): <1%; Toxicity (%) to Caco 2 ([1]; 10 μM): <1%; Toxicity (%) to Caco 2 ([1]; 30 μM): <1%; Rate of decrease (%) of bile acid [2, 6]: 23%
CCCCC1(CCCC)CS(=O)(=O)c2ccc(N(C)C)cc2C(c2cccc(NC(=S)Nc3cccc(C[N+](C)(C)Cc4ccccc4)c3)c2)N1.[Br-] (stereo not shown) [Example 4257]	–	30	–
CCCCC1(CCCC)CS(=O)(=O)c2ccc(N(C)C)cc2C(c2ccc(NC(=S)Nc3ccc(C[N+](C)(C)Cc4ccccc4)cc3)cc2)N1.[Br-] (stereo not shown) [Example 5405, Benzyl-(4-{3-[4-(3,3-dibutyl-7-dimethylamino-1,1-dioxo-2,3,4,5-tetrahydro-1,4-benzothiazepin-5-yl)phenyl]thioureido}-benzyl)dimethylammonium bromide]	–	16	–
CCCCC1(CCCC)CS(=O)(=O)c2ccc(N(C)C)cc2C(c2cccc(NC(=S)Nc3cccc(C[N+]4(Cc5ccccc5)CCC(CO)CC4)c3)c2)N1 (stereo not shown) [Example 4424]	91	17	–
CCCCC1(CCCC)CS(=O)(=O)c2ccc(N(C)C)cc2C(c2cccc(NC(=S)NCCCC[N+](C)(C)Cc3ccccc3)c2)N1.[Br-] (stereo not shown) [Example 801]	–	33	–
CCCCC1(CCCC)CS(=O)(=O)c2ccc(N(C)C)cc2C(c2cccc(NC(=S)Nc3ccccc3C[N+]34CCC(CC3)CC4)c2)N1.[Br-] (stereo not shown) [Example 4905]	–	28	–
CCCCCC1(CCCCC)CS(=O)(=O)c2ccc(N(C)C)cc2C(c2cccc(NC(=S)Nc3ccc(C[N+](C)(C)Cc4ccccc4)cc3)c2)N1.[Br-] (stereo not shown) [Example 5480]	–	–	Toxicity (%) to Caco 2 ([1]; 3 μM): <1%; Toxicity (%) to Caco 2 ([1]; 10 μM): <1%; Toxicity (%) to Caco 2 ([1]; 30 μM): <1%
CCCCC1(CCCC)CS(=O)(=O)c2ccc(N(C)C)cc2C(c2cccc(NC(=S)Nc3ccc(C[N+]45CCN(CC4)CC5)cc3)c2)N1.[Br-] (stereo not shown) [Example 3705]	54	–	Toxicity (%) to Caco 2 ([1]; 3 μM): <1%; Toxicity (%) to Caco 2 ([1]; 10 μM): <1%; Toxicity (%) to Caco 2 ([1]; 30 μM): <1%
CCCCC1(CCCC)CS(=O)(=O)c2ccc(N(C)C)cc2C(c2cccc(NC(=S)Nc3ccc(C[n+]4ccc(C#N)cc4)cc3)c2)N1.[Br-] (stereo not shown) [Example 3753]	–	–	Rate of decrease (%) of bile acid [2, 4]: 8.5%
CCCCC1(CCCC)CS(=O)(=O)c2ccc(N(C)C)cc2C(c2cccc(NC(=S)Nc3ccc(C[n+]4cccc(CC#N)c4)cc3)c2)N1.[Br-] (stereo not shown) [Example 3759]	–	–	Toxicity (%) to Caco 2 ([1]; 3 μM): <1%; Toxicity (%) to Caco 2 ([1]; 10 μM): <1%; Toxicity (%) to Caco 2 ([1]; 30 μM): <1%; Rate of decrease (%) of bile acid [2, 4]: 36%
CCCCC1(CCCC)CS(=O)(=O)c2ccc(N(C)C)cc2C(c2cccc(NC(=S)Nc3cccc(C[N+](C)(CC)Cc4ccccc4)c3)c2)N1 (stereo not shown) [Example 4260]	74	–	–
CCCCC1(CCCC)CS(=O)(=O)c2ccc(N(C)C)cc2C(c2cccc(NC(=S)Nc3ccc(C[N+](C)(C)CC(C)O)cc3)c2)N1 (stereo not shown) [Example 3454]	68	–	–
CCCCC1(CCCC)CS(=O)(=O)c2ccc(N(C)C)cc2C(c2cccc(NC(=S)Nc3ccc(C[n+]4ccc(C)cc4)cc3)c2)N1.[Br-] (stereo not shown) [Example 3709]	49	–	Toxicity (%) to Caco 2 ([1]; 3 μM): <1%; Toxicity (%) to Caco 2 ([1]; 10 μM): <1%; Toxicity (%) to Caco 2 ([1]; 30 μM): <1%
CCCCC1(CCCC)CS(=O)(=O)c2ccc(N(C)C)cc2C(c2cccc(NC(=S)NCCCCCC[N+]34CCC(CC3)CC4)c2)N1 (stereo not shown) [Example 1810]	167	–	–
CCCCC1(CCCC)CS(=O)(=O)c2ccc(N(C)C)cc2C(c2cccc(NC(=S)NCCCCC[N+](C)(C)Cc3ccccc3)c2)N1.[Br-] (stereo not shown) [Example 1178]	93	18	–
CCCCC1(CCCC)CS(=O)(=O)c2ccc(N(C)C)cc2C(c2cccc(NC(=S)Nc3ccc(C[N+]4(C)CCCCC4)cc3)c2)N1 (stereo not shown) [Example 3587]	70	–	–
CCCCC1(CCCC)CS(=O)(=O)c2ccc(N(C)C)cc2C(c2cccc(NC(=S)Nc3ccc(C[n+]4ccccc4)cc3)c2)N1 (stereo not shown) [Example 3708]	70	–	–
CCCCC1(CCCC)CS(=O)(=O)c2ccc(N(C)C)cc2C(c2cccc(NC(=S)Nc3ccc(C[n+]4ccc(C(C)=O)cc4)cc3)c2)N1 (stereo not shown) [Example 3736]	50	–	–
CCCCC1(CCCC)CS(=O)(=O)c2ccc(N(C)C)cc2C(c2cccc(NC(=S)Nc3ccc(C[N+](C)(C)Cc4cccs4)cc3)c2)N1 (stereo not shown) [Example 3449]	55	–	–
CCCCCC[N+](C)(C)Cc1ccc(NC(=S)Nc2cccc(C3NC(CCCC)(CCCC)CS(=O)(=O)c4ccc(N(C)C)cc43)c2)cc1 (stereo not shown) [Example 3410]	68	–	–
CCCCC1(CCCC)CS(=O)(=O)c2ccc(N(C)C)cc2C(c2cccc(NC(=S)Nc3ccc(C[n+]4cccc5cc(C)ccc54)cc3)c2)N1 (stereo not shown) [Example 3770]	57	–	–
